32 sequences from the supplement of paper PMC11208160 can be followed below.

The nature of the data set: recombinant barcode read abundance after kanamycin selection (control-corrected) (log10(CPM+1)); higher = more efficient recombination; sequences stand for … in AGTGCAGAGAAAATCGGCCAGTTTTCTCTGCCTGCAGTCCGCATGCCGT…AGATTTATGCAGCGGACTGCCTTTCTCCCAAAGTGATAAACCGGACAGTATCATGGACCGGTTTTCCCGGTAATCCGTATTTGCAAGGTTGGTTTCACT; site = the 11-nt target. In a few lines: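 In a pooled screen in E. coli, targets were paired with target-binding loops of the IS621 bridge RNA. Each oligo carried a promoter, a target, a barcode and the first 104 bridge RNA bases driven by J23119, and was Gibson-cloned into a vector holding the remaining 73 bp and a T7-inducible recombinase before co-electroporation with a donor plasmid. Duplicate platings went onto chloramphenicol/ampicillin LB agar as the control or onto chloramphenicol/ampicillin/kanamycin with 0.1 mM IPTG. Recombination efficiency is the averaged, control-corrected count per million of barcodes at recombinant junctions, given as log10(CPM+1).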
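Further: IS621 recombinase and bridge RNA in Escherichia coli cells.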

As to “ATGCAACCTTGGGTTCTAACCTGTTGCCT (site ATGCAATCTAG)”, the “recombinant barcode read abundance (log10)” value amounted to 0.293.
The same measure for “ATGCACCCTTGGGTTCTAACCTGTTGCCT (site ATGCACCCTAG)”: 2; for “ATGCACCCTTGGGTTCTAACCTGTTGCCT (site ATGCGCCCTAG)”: 0.977; for “ATGCCGACTTGGGTTCTAACCTGTTGCCT (site ATGCCAACTAG)”: 0.101.
Turning to “ATGCCGACTTGGGTTCTAACCTGTTGCCT (site ATGCCCACTAG)”, the “recombinant barcode read abundance (log10)” value is 0.0898.
“ATGCCGACTTGGGTTCTAACCTGTTGCCT (site ATGCCGACTAG)”: the “recombinant barcode read abundance (log10)” value came to 1.02.
With “ATGCCGACTTGGGTTCTAACCTGTTGCCT (site ATGCCTACTAG)” the figure was 0.11; with “ATGCGAGCTTGGGTTCTAACCTGTTGCCG (site ATGCGAGCTCA)”, 0.177.
The same measure for “ATGCGAGCTTGGGTTCTAACCTGTTGCCG (site ATGCGAGCTCC)”: 0.358; for “ATGCGAGCTTGGGTTCTAACCTGTTGCCG (site ATGCGAGCTCG)”: 0.815; for “ATGCGAGCTTGGGTTCTAACCTGTTGCCG (site ATGCGAGCTCT)”: 0.404.
As for “ATGCGCCCTTGGGTTCTAACCTGTTGCCT (site ATGCACCCTAG)”, the “recombinant barcode read abundance (log10)” value amounted to 0.43.
For “ATGCGCCCTTGGGTTCTAACCTGTTGCCT (site ATGCGCCCTAG)”, the “recombinant barcode read abundance (log10)” value came out at 0.717.
On to “ATGCTACCTTGGGTTCTAACCTGTTGCGG (site ATGCTACCTCC)”, for which the “recombinant barcode read abundance (log10)” value amounted to 1.2.
With “ATGCTACCTTGGGTTCTAACCTGTTGCGG (site CACGGGGCTAG)” the figure was 0.0226; with “ATGGGAGCTTGGGTTCTAACCTGTTGCGA (site AGGGGAGCTCC)”, 0.627; with “ATGGGAGCTTGGGTTCTAACCTGTTGCGA (site ATGGGAGCTTC)”, 1.14.
With “ATGGTGCCTTGGGTTCTAACCTGTTGCCT (site ATGGTGACTAG)” the figure was 0.098; with “ATGGTGCCTTGGGTTCTAACCTGTTGCCT (site ATGGTGCCTAG)”, 2.65; with “ATGGTGCCTTGGGTTCTAACCTGTTGCCT (site ATGGTGGCTAG)”, 0.417.
Take “ATGGTGCCTTGGGTTCTAACCTGTTGCCT (site ATGGTGTCTAG)”: the “recombinant barcode read abundance (log10)” value worked out at 2.03.
In the case of “ATGTAGGCTTGGGTTCTAACCTGTTGCCT (site ATGTAGGCTAG)”, the “recombinant barcode read abundance (log10)” value was 0.137.
With “ATGTAGGCTTGGGTTCTAACCTGTTGCCT (site ATGTTAGCTAG)” the figure was 0.127; with “ATGTATTCTTGGGTTCTAACCTGTTGCCT (site AACTATTCTAG)”, 0.0758; with “ATGTATTCTTGGGTTCTAACCTGTTGCCT (site ATGTATTCTAG)”, 0.828.
“ATGTCGTCTTGGGTTCTAACCTGTTGCCT (site AAGTCGTCTAG)”: the “recombinant barcode read abundance (log10)” value came out at 0.0812.
As to “ATGTCGTCTTGGGTTCTAACCTGTTGCCT (site ACGTCGTCTAG)”, the “recombinant barcode read abundance (log10)” value came out at 0.296.
On to “ATGTCGTCTTGGGTTCTAACCTGTTGCCT (site AGGTCGTCTAG)”, for which the “recombinant barcode read abundance (log10)” value came to 0.141.
The same measure for “ATGTCGTCTTGGGTTCTAACCTGTTGCCT (site ATGTCGTCTAG)”: 1.13; for “ATGTCTCCTTGGGTTCTAACCTGTTGCCT (site ATGTCTCCTAG)”: 1; for “ATGTCTCCTTGGGTTCTAACCTGTTGCCT (site CTGTCTCCTAG)”: 0.0833.
The same measure for “ATGTCTCCTTGGGTTCTAACCTGTTGCCT (site GTGTCTCCTAG)”: 0.0531.
